Tests used:
conscious dogs = test: Dose escalation safety study, cardiovascular and respiratory parameters; settings: acute intravenous, 3, 5 and 12 mg/kg
Protocol: To establish the safety of eszopiclone, a dose escalation study was carried out. Cardiovascular and respiratory parameters were evaluated in conscious dogs following acute intravenous administration of (R)-, (S)- or racemic zopiclone at three doses (3, 5 and 12 mg/kg).

mice = test: Antimuscarinic activity in vivo: oxotremorine induced salivation; settings: doses up to 300 mg/kg, p.o.
Protocol: Eszopiclone was evaluated for antimuscarinic activity in vivo.

[1] = test system: women with insomnia secondary to perimenopause or menopause; test: Clinical study: discontinuation rates; format: in vivo; settings: 3 mg nightly for four weeks
Protocol: (§1) The study was aimed at observing efficacy of eszopiclone 3 mg compared to placebo in the treatment of insomnia secondary to perimenopause or menopause. The study was a multicenter, randomized, double-blind, placebo-controlled, parallel-group study. […] The primary method of analysis compared the post-randomization results between the two treatment groups.
(§2) Subjects were women with insomnia secondary to perimenopause or menopause. Subjects were perimenopausal or menopausal and had insomnia symptoms including ≧45 minutes sleep latency (SL) and total sleep time (TST) ≦6 hours. Perimenopausal/menopausal symptoms predated the onset of sleep disturbance symptoms. The patient population was predominately Caucasian (77.2%). The mean age was 49, with a range of 40-60.
(§3) A total of 410 subjects were randomized. Among them, 201 received 3 mg of eszopiclone (ESZ) nightly (at bedtime) for four weeks and 209 received matching placebo (PBO).

[2] = test system: women with insomnia secondary to perimenopause or menopause; test: Clinical study: Physician Global Assessment of perimenopausal or menopausal symptoms; format: in vivo; settings: ITT; for Physician Global Assessment, Observed Value, Mean (SD): score 1 = Very much improved to 7 = Very much worse; for Physician Global Assessment, Observed Value, Least Squares Means (SE) [1]: ANOVA
Protocol: as §1, §2, §3
A Physician Global Assessment was administered at Week 4, the end of the double-blind treatment period.

muscarinic receptors = test: In vitro affinity for muscarinic receptors; format: binding
[3] = test system: women with insomnia secondary to perimenopause or menopause; test: Clinical study: number of nocturnal awakenings due to hot flashes; format: in vivo; settings: for Number of Nocturnal Awakenings due to Hot Flashes, Observed Value, Mean (SD) / Number of Nocturnal Awakenings due to Hot Flashes, Observed Value, 25th Percentile / Number of Nocturnal Awakenings due to Hot Flashes, Observed Value, 75th Percentile / Number of Nocturnal Awakenings due to Hot Flashes, Observed Value, Maximum / Number of Nocturnal Awakenings due to Hot Flashes, Observed Value, Median / Number of Nocturnal Awakenings due to Hot Flashes, Observed Value, Minimum / Number of Nocturnal Awakenings due to Hot Flashes, Change from Baseline, 25th Percentile / Number of Nocturnal Awakenings due to Hot Flashes, Change from Baseline, 75th Percentile / Number of Nocturnal Awakenings due to Hot Flashes, Change from Baseline, Maximum / Number of Nocturnal Awakenings due to Hot Flashes, Change from Baseline, Mean (SD) / Number of Nocturnal Awakenings due to Hot Flashes, Change from Baseline, Median / Number of Nocturnal Awakenings due to Hot Flashes, Change from Baseline, Minimum / Number of Nocturnal Awakenings due to Hot Flashes, Change from Baseline, Least Squares Means (SE) [3] / Number of Nocturnal Awakenings due to Hot Flashes, Observed Value, Least Squares Means (SE) [2]: ITT; for Number of Nocturnal Awakenings due to Hot Flashes, Change from Baseline, Least Squares Means (SE) [3]: ANCOVA; for Number of Nocturnal Awakenings due to Hot Flashes, Observed Value, Least Squares Means (SE) [2]: ANOVA
Protocol: as §1, §2, §3

## CN1CCN(C(=O)O[C@H]2c3nccnc3C(=O)N2c2ccc(Cl)cn2)CC1 [Eszopiclone, (+)6-(5-chloropyrid-2-yl)-5-(4-methylpiperazin-1-yl)carbonyloxy-7-oxo-6,7-dihydro-5H-pyrrolo[3-4-b]pyrazine]
Conscious dogs
  cardiotoxicity, as evidenced by the electrocardiogram (ECG): No evidence of cardiotoxicity
  effect on blood pressure: dose dependent, transient decreases in blood pressure
  effect on heart rate: compensatory increase in heart rate
Conscious dogs; all dose groups
  Blood gases and blood chemistries (pH, pCO2, pO2, hematocrit, and lactate): remained unaffected
mice
  antagonism of oxotremorine induced salivation: neither (R)-, (S)-, nor racemic zopiclone significantly antagonized oxotremorine induced salivation
[1]
  discontinuation rate: 11.9%
[2]; Visit 3 (Baseline), 3 mg group
  Physician Global Assessment, Observed Value, 25th Percentile: 4.0
  Physician Global Assessment, Observed Value, 75th Percentile: 4.0
  Physician Global Assessment, Observed Value, Maximum: 7.0
  Physician Global Assessment, Observed Value, Median: 4.0
  Physician Global Assessment, Observed Value, Minimum: 0.0
[2]; Visit 3 (Baseline), 3 mg group, 0 = Not assessed
  Physician Global Assessment, Observed Value, Mean (SD): 3.7 (1.0)
[2]; Visit 5 (Week 4), 3 mg nightly
  Physician Global Assessment, Change from Baseline, 25th Percentile: −2.0
  Physician Global Assessment, Change from Baseline, 75th Percentile: 0.0
  Physician Global Assessment, Change from Baseline, Maximum: 6.0
  Physician Global Assessment, Change from Baseline, Mean (SD): −1.0 (1.4)
  Physician Global Assessment, Change from Baseline, Median: −1.0
  Physician Global Assessment, Change from Baseline, Minimum: −4.0
  Physician Global Assessment, Observed Value, 25th Percentile: 2.0
  Physician Global Assessment, Observed Value, 75th Percentile: 4.0
  Physician Global Assessment, Observed Value, Maximum: 6.0
  Physician Global Assessment, Observed Value, Median: 2.0
  Physician Global Assessment, Observed Value, Minimum: 1.0
  Physician Global Assessment, Observed Value, Least Squares Means (SE) [1]: 2.7 (0.1)
  Physician Global Assessment, Observed Value, Mean (SD): 2.6 (1.2)
[2]; Visit 5 (Week 4), 3 mg nightly, ANCOVA
  Physician Global Assessment, Change from Baseline, Least Squares Means (SE) [2]: −0.9 (0.1)
[2]; Visit 5 (Week 4), 3 mg nightly, listed as ESZ
  Physician Global Assessment, Observed Value, Least Squares Means (SE) [1]: 2.7
Muscarinic receptors
  in vitro affinity for muscarinic receptors: lack of in vitro affinity
[3]; Baseline (average of all pre-DB observations), 3 mg group
  Number of Nocturnal Awakenings due to Hot Flashes, Observed Value, Mean (SD): 1.3 (1.2)
[3]; Baseline, 3 mg group
  Number of Nocturnal Awakenings due to Hot Flashes, Observed Value, 25th Percentile: 0.3
  Number of Nocturnal Awakenings due to Hot Flashes, Observed Value, 75th Percentile: 2.0
  Number of Nocturnal Awakenings due to Hot Flashes, Observed Value, Maximum: 6.0
  Number of Nocturnal Awakenings due to Hot Flashes, Observed Value, Median: 1.0
  Number of Nocturnal Awakenings due to Hot Flashes, Observed Value, Minimum: 0.0
[3]; DB Average, 3 mg nightly
  Number of Nocturnal Awakenings due to Hot Flashes, Change from Baseline, 25th Percentile: −1.1
  Number of Nocturnal Awakenings due to Hot Flashes, Change from Baseline, 75th Percentile: 0.0
  Number of Nocturnal Awakenings due to Hot Flashes, Change from Baseline, Maximum: 1.5
  Number of Nocturnal Awakenings due to Hot Flashes, Change from Baseline, Mean (SD): −0.7 (1.0)
  Number of Nocturnal Awakenings due to Hot Flashes, Change from Baseline, Median: −0.5
  Number of Nocturnal Awakenings due to Hot Flashes, Change from Baseline, Minimum: −6.0
  Number of Nocturnal Awakenings due to Hot Flashes, Observed Value, 25th Percentile: 0.0
  Number of Nocturnal Awakenings due to Hot Flashes, Observed Value, 75th Percentile: 0.9
  Number of Nocturnal Awakenings due to Hot Flashes, Observed Value, Maximum: 2.7
  Number of Nocturnal Awakenings due to Hot Flashes, Observed Value, Mean (SD): 0.5 (0.6)
  Number of Nocturnal Awakenings due to Hot Flashes, Observed Value, Median: 0.2
  Number of Nocturnal Awakenings due to Hot Flashes, Observed Value, Minimum: 0.0
  Number of Nocturnal Awakenings due to Hot Flashes, Change from Baseline, Least Squares Means (SE) [3]: −0.7 (0.1)
  Number of Nocturnal Awakenings due to Hot Flashes, Observed Value, Least Squares Means (SE) [2]: 0.5 (0.1)
[3]; Week 1, 3 mg nightly
  nocturnal awakenings due to hot flashes, LS means: 0.3 per night
  Number of Nocturnal Awakenings due to Hot Flashes, Change from Baseline, 25th Percentile: −1.2
  Number of Nocturnal Awakenings due to Hot Flashes, Change from Baseline, 75th Percentile: 0.0
  Number of Nocturnal Awakenings due to Hot Flashes, Change from Baseline, Maximum: 0.8
  Number of Nocturnal Awakenings due to Hot Flashes, Change from Baseline, Mean (SD): −0.7 (1.0)
  Number of Nocturnal Awakenings due to Hot Flashes, Change from Baseline, Median: −0.5
  Number of Nocturnal Awakenings due to Hot Flashes, Change from Baseline, Minimum: −6.0
  Number of Nocturnal Awakenings due to Hot Flashes, Observed Value, 25th Percentile: 0.0
  Number of Nocturnal Awakenings due to Hot Flashes, Observed Value, 75th Percentile: 1.0
  Number of Nocturnal Awakenings due to Hot Flashes, Observed Value, Maximum: 3.0
  Number of Nocturnal Awakenings due to Hot Flashes, Observed Value, Mean (SD): 0.5 (0.7)
  Number of Nocturnal Awakenings due to Hot Flashes, Observed Value, Median: 0.2
  Number of Nocturnal Awakenings due to Hot Flashes, Observed Value, Minimum: 0.0
  Number of Nocturnal Awakenings due to Hot Flashes, Change from Baseline, Least Squares Means (SE) [3]: −0.7 (0.1)
  Number of Nocturnal Awakenings due to Hot Flashes, Observed Value, Least Squares Means (SE) [2]: 0.5 (0.1)
[3]; Week 2, 3 mg nightly
  Number of Nocturnal Awakenings due to Hot Flashes, Change from Baseline, 25th Percentile: −1.0
  Number of Nocturnal Awakenings due to Hot Flashes, Change from Baseline, 75th Percentile: 0.0
  Number of Nocturnal Awakenings due to Hot Flashes, Change from Baseline, Maximum: 2.0
  Number of Nocturnal Awakenings due to Hot Flashes, Change from Baseline, Mean (SD): −0.7 (1.0)
  Number of Nocturnal Awakenings due to Hot Flashes, Change from Baseline, Median: −0.6
  Number of Nocturnal Awakenings due to Hot Flashes, Change from Baseline, Minimum: −6.0
  Number of Nocturnal Awakenings due to Hot Flashes, Observed Value, 25th Percentile: 0.0
  Number of Nocturnal Awakenings due to Hot Flashes, Observed Value, 75th Percentile: 1.0
  Number of Nocturnal Awakenings due to Hot Flashes, Observed Value, Maximum: 3.0
  Number of Nocturnal Awakenings due to Hot Flashes, Observed Value, Mean (SD): 0.5 (0.7)
  Number of Nocturnal Awakenings due to Hot Flashes, Observed Value, Median: 0.0
  Number of Nocturnal Awakenings due to Hot Flashes, Observed Value, Minimum: 0.0
  Number of Nocturnal Awakenings due to Hot Flashes, Change from Baseline, Least Squares Means (SE) [3]: −0.6 (0.1)
  Number of Nocturnal Awakenings due to Hot Flashes, Observed Value, Least Squares Means (SE) [2]: 0.5 (0.1)
[3]; Week 3, 3 mg nightly
  Number of Nocturnal Awakenings due to Hot Flashes, Change from Baseline, 25th Percentile: −1.0
  Number of Nocturnal Awakenings due to Hot Flashes, Change from Baseline, 75th Percentile: 0.0
  Number of Nocturnal Awakenings due to Hot Flashes, Change from Baseline, Maximum: 1.5
  Number of Nocturnal Awakenings due to Hot Flashes, Change from Baseline, Mean (SD): −0.7 (1.1)
  Number of Nocturnal Awakenings due to Hot Flashes, Change from Baseline, Median: −0.4
  Number of Nocturnal Awakenings due to Hot Flashes, Change from Baseline, Minimum: −6.0
  Number of Nocturnal Awakenings due to Hot Flashes, Observed Value, 25th Percentile: 0.0
  Number of Nocturnal Awakenings due to Hot Flashes, Observed Value, 75th Percentile: 1.0
  Number of Nocturnal Awakenings due to Hot Flashes, Observed Value, Maximum: 3.0
  Number of Nocturnal Awakenings due to Hot Flashes, Observed Value, Mean (SD): 0.5 (0.7)
  Number of Nocturnal Awakenings due to Hot Flashes, Observed Value, Median: 0.0
  Number of Nocturnal Awakenings due to Hot Flashes, Observed Value, Minimum: 0.0
  Number of Nocturnal Awakenings due to Hot Flashes, Change from Baseline, Least Squares Means (SE) [3]: −0.6 (0.1)
  Number of Nocturnal Awakenings due to Hot Flashes, Observed Value, Least Squares Means (SE) [2]: 0.5 (0.1)
[3]; Week 4, 3 mg nightly
  Number of Nocturnal Awakenings due to Hot Flashes, Change from Baseline, 25th Percentile: −1.3
  Number of Nocturnal Awakenings due to Hot Flashes, Change from Baseline, 75th Percentile: 0.0
  Number of Nocturnal Awakenings due to Hot Flashes, Change from Baseline, Maximum: 2.1
  Number of Nocturnal Awakenings due to Hot Flashes, Change from Baseline, Mean (SD): −0.8 (1.2)
  Number of Nocturnal Awakenings due to Hot Flashes, Change from Baseline, Median: −0.7
  Number of Nocturnal Awakenings due to Hot Flashes, Change from Baseline, Minimum: −6.0
  Number of Nocturnal Awakenings due to Hot Flashes, Observed Value, 25th Percentile: 0.0
  Number of Nocturnal Awakenings due to Hot Flashes, Observed Value, 75th Percentile: 1.0
  Number of Nocturnal Awakenings due to Hot Flashes, Observed Value, Maximum: 3.6
  Number of Nocturnal Awakenings due to Hot Flashes, Observed Value, Mean (SD): 0.4 (0.7)
  Number of Nocturnal Awakenings due to Hot Flashes, Observed Value, Median: 0.0
  Number of Nocturnal Awakenings due to Hot Flashes, Observed Value, Minimum: 0.0
  Number of Nocturnal Awakenings due to Hot Flashes, Change from Baseline, Least Squares Means (SE) [3]: −0.7 (0.1)
  Number of Nocturnal Awakenings due to Hot Flashes, Observed Value, Least Squares Means (SE) [2]: 0.4 (0.1)

— US7465729B2, “Methods of treatment of menopause and perimenopause using eszopiclone” (Sepracor Inc., priority 2004, dated 2008)
